The subject of one test is IE^k. Type of test: binding, mouse. To be noted: read-out: Capacity to bind purified IE^k, IC50.
The next test deals with T1, IA^b (Mus musculus, UniProt P14434+P14483).
T1 construct: Various cell lines were used as sources of purified human and mouse class II molecules; endogenous in cells; host or cells: DB27.4
T1 sequence (P14434 24-256): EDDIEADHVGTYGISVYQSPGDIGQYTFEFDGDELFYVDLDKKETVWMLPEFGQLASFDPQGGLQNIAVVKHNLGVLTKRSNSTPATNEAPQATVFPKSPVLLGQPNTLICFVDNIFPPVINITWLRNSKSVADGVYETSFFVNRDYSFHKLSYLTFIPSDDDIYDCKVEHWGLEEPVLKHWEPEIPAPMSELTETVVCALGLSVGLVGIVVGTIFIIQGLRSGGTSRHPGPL
T1 sequence (P14483 28-265): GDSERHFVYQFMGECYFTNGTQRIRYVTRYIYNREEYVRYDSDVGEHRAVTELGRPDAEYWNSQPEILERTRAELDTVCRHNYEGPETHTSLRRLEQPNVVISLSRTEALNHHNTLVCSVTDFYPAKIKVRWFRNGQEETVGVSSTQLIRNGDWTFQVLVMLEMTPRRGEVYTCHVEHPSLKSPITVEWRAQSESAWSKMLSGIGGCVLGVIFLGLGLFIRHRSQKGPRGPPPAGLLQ
The test is described as follows: biochemical. Type of test: binding.

A further test concerns the target T2, IE^d (Mus musculus, UniProt P01904+P01915).
T2 construct: Various cell lines were used as sources of purified human and mouse class II molecules; endogenous in cells; host or cells: A20
T2 sequence (P01904 26-255): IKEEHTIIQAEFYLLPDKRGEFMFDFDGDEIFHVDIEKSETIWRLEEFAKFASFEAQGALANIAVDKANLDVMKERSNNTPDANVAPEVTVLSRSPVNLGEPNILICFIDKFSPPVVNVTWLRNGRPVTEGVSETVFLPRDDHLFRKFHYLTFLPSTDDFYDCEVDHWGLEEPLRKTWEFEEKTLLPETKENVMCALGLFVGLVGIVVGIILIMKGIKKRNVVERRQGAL
T2 sequence (P01915 27-264 limits assumed): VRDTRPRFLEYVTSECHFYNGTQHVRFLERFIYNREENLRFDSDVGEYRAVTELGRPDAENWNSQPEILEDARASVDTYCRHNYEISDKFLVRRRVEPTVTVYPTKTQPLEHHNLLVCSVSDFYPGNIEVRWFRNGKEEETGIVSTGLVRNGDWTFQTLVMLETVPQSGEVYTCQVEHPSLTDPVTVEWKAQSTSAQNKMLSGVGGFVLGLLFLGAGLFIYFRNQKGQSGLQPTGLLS
The test is described as follows: biochemical. The class given is binding.

The target in the next test is T3, IA^d (Mus musculus, UniProt P01921+P04228).
T3 construct: Various cell lines were used as sources of purified human and mouse class II molecules; endogenous in cells; host or cells: A20
T3 sequence (P04228 24-256): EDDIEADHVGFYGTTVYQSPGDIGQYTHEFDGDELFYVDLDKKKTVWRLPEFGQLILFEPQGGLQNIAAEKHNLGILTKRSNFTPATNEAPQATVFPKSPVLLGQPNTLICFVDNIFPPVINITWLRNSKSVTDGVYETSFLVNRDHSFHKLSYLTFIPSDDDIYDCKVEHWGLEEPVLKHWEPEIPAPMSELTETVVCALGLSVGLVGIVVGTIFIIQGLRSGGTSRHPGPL
T3 sequence (P01921 28-265): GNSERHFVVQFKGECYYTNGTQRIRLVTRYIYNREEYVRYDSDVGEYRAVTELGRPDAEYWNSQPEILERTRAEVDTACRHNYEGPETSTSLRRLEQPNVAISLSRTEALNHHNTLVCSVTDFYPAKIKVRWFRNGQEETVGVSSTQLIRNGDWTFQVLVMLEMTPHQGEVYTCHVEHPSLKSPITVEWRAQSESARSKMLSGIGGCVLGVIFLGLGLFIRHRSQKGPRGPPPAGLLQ
The test is described as follows: biochemical. The class given is binding. Conditions: Table III; read-out: Capacity to bind purified IA^d, IC50.

A further test has as its target T4, IA^s (Mus musculus, UniProt P06345+P14437).
T4 construct: Various cell lines were used as sources of purified human and mouse class II molecules; endogenous in cells; host or cells: LS102.9
T4 sequence (P14437 1-233): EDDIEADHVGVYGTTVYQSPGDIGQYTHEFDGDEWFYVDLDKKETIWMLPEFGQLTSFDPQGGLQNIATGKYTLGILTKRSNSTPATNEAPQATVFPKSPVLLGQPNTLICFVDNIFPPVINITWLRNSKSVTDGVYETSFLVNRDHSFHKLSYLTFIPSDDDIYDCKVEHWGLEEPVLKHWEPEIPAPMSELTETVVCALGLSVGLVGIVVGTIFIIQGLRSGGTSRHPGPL
T4 sequence (P06345 28-263): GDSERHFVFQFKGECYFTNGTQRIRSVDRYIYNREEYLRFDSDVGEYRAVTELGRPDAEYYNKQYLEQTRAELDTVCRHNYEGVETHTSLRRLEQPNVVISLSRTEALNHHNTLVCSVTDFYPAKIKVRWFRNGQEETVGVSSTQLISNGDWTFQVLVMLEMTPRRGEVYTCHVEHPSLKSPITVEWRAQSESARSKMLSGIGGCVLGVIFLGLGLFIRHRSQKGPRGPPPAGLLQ
The test is described as follows: biochemical. To be noted: Table III; read-out: Capacity to bind purified IA^s, IC50. The class given is binding.

In another test the target is T5, IA^k (Mus musculus, UniProt P01910+P06343).
T5 construct: Various cell lines were used as sources of purified human and mouse class II molecules; endogenous in cells; host or cells: CH12
The test is described as follows: biochemical. The class given is binding. Conditions: Table III; read-out: Capacity to bind purified IA^k, IC50.

A further test concerns the target DR7. Conditions: for IC50: read-out: PADRE Class II Binding Affinities DR7.
The target in another test is DRw53 (Homo sapiens, UniProt P01903+P13762).
In the next test the target is DR3 (Homo sapiens, UniProt P01903+P01911, A100K/A102G/A103R/A169T/F55Y/I96L/K41T/L162R/M171V/P40S/Q125H/Q178H/Q39Y/R42S/S66N/T106N/T262R/W38E/Y61H). Conditions: Table VIII A.
The subject of a further test is human PBMC T cell lines. Type of test: cell-based.
The subject of a further test is C57BL/6J (H-2^b+) mice. To be noted: mouse, in vivo.
The mark [1] stands for this setting: Table III, read-out: Capacity to bind purified IE^d, IC50.

Where two headings read alike, the source gives them in different places. Non-standard residues stand in square brackets, D forms with d. Residues, ends and D or L forms follow the SMILES beside them. Cha = N[C@@H](CC1CCCCC1)C(=O)O A value given as a limit tells only on which side of the number the result lay.

T5 sequence (P01910 24-256): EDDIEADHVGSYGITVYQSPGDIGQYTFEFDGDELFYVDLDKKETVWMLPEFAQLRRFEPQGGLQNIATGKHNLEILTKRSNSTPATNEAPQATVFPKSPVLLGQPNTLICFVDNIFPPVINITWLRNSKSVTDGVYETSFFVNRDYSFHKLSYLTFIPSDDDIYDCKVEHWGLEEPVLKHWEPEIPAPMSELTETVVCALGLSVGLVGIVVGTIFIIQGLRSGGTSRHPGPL
T5 sequence (P06343 28-263): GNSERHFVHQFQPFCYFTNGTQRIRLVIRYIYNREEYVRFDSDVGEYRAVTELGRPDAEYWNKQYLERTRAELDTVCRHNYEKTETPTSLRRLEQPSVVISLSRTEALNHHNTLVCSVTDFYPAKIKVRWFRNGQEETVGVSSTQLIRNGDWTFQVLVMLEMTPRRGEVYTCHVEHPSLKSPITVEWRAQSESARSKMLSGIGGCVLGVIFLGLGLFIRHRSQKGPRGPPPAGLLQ
DRw53, sequence (P01903 26-254): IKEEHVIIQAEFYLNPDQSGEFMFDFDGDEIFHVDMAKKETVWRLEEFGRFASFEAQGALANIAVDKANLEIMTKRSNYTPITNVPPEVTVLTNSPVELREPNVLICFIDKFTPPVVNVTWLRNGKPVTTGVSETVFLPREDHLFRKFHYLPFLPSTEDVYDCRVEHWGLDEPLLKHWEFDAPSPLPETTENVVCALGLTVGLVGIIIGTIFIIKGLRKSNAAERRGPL
DRw53, sequence (P13762 30-266): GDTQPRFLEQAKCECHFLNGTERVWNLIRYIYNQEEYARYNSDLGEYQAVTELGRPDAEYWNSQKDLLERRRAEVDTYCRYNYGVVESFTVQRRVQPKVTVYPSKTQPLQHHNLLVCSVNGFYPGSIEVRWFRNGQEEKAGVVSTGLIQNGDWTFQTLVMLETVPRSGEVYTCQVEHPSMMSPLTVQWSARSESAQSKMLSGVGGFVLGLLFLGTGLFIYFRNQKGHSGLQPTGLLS
DR3, sequence (P01903 26-254): as the sequence (P01903 26-254) above
DR3, sequence (P01911 30-266 with the stated changes): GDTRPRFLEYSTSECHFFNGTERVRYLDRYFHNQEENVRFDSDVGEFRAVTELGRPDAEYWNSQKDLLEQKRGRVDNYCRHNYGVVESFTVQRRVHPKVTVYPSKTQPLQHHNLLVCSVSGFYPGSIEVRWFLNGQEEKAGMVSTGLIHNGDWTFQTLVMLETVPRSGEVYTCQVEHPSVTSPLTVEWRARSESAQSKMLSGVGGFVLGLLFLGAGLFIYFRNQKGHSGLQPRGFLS

As to `CC[C@H](C)[C@H](NC(=O)[C@@H]1CCCN1C(=O)[C@H](C)NC(=O)[C@H](CC(N)=O)NC(=O)[C@@H]1CCCN1C(=O)[C@@H]1CCCN1C(=O)[C@H](CCCNC(=N)N)NC(=O)[C@H](Cc1ccc(O)cc1)NC(=O)[C@H](C)NC(=O)[C@@H]1CCCN1C(=O)[C@@H]1CCCN1C(=O)[C@@H](N)[C@@H](C)O)C(=O)N[C@@H](CC(C)C)C(=O)O` [HBVc 128-140, reference compound], the IC50 in the test with IE^k (Table III) is above 10 µM.

With `CC[C@H](C)[C@H](NC(=O)CNC(=O)[C@H](Cc1ccc(O)cc1)NC(=O)[C@H](CC(=O)O)NC(=O)[C@@H](NC(=O)[C@H](CO)NC(=O)CNC(=O)[C@H](CC(=O)O)NC(=O)[C@@H](NC(=O)[C@@H](N)CC(N)=O)[C@@H](C)O)[C@@H](C)O)C(=O)N[C@@H](CC(C)C)C(=O)N[C@@H](CCC(N)=O)C(=O)N[C@H](C(=O)N[C@@H](CC(N)=O)C(=O)N[C@@H](CO)C(=O)N[C@@H](CCCNC(=N)N)C(=O)O)[C@@H](C)CC` [HEL46-61], the IC50 is 7 µM at IA^b; 8.5 µM on IE^d (setting [1]); 1.22 µM at IA^d; above 10 µM on IA^s; 0.02 µM at IA^k.

In the case of `CC[C@H](C)[C@H](NC(=O)[C@H](C)NC(=O)[C@H](CCCCN)NC(=O)[C@H](CC(C)C)NC(=O)[C@H](CCCNC(=N)N)NC(=O)[C@H](CCCNC(=N)N)NC(=O)[C@H](C)NC(=O)[C@H](CC(=O)O)NC(=O)[C@H](CCC(=O)O)NC(=O)[C@H](CC(C)C)NC(=O)[C@@H](N)Cc1ccc(O)cc1)C(=O)N[C@@H](Cc1ccc(O)cc1)C(=O)N[C@@H](CCC(=O)O)C(=O)N[C@@H](CCCCN)C(=O)N[C@@H](CCCCN)C(=O)N[C@@H](CCCCN)C(=O)O` [Iambda rep 12-26], the IC50 on IA^b is above 10 µM; on IE^d (Allele IEd, read-out: Avg. IC50 of assay standard) it was 0.17 µM; on IA^d, 1.1 µM; on IA^s it was above 10 µM; at IA^k, above 10 µM.

Consider `CC(C)C[C@H](NC(=O)[C@H](Cc1c[nH]c2ccccc12)NC(=O)[C@H](CCCCN)NC(=O)CNC(=O)[C@H](CC(C)C)NC(=O)[C@H](CO)NC(=O)[C@@H](N)Cc1c[nH]cn1)C(=O)NCC(=O)N[C@@H](Cc1c[nH]cn1)C(=O)N1CCC[C@H]1C(=O)N[C@@H](CC(=O)O)C(=O)N[C@@H](CCCCN)C(=O)N[C@@H](Cc1ccccc1)C(=O)O` [PLP 139-151], for which the IC50 on IA^b was above 3.1 µM; on IE^d (setting [1]), above 10 µM; at IA^d, above 10 µM; on IA^s it was 0.086 µM; on IA^k, above 10 µM.

As to `CC(C)C[C@H](NC(=O)[C@@H](NC(=O)[C@H](C)NC(=O)[C@H](CCC(=O)O)NC(=O)[C@H](C)NC(=O)[C@H](C)NC(=O)[C@H](CC1CCCCC1)NC(=O)[C@H](C)NC(=O)[C@@H](C)N)[C@@H](C)O)C(=O)N[C@@H](CCCCN)C(=O)N[C@@H](C)C(=O)N[C@@H](C)C(=O)N[C@H](C)C(N)=O` [Peptide 906.19], at DR7, the “PADRE Class II Binding Affinities DR7” value is given as “DR7 reactivity was lost”. Also, the figures for the IC50 with DR7 and in the test on DR5 (read-out: PADRE Class II Binding Affinities DR5) were 250 µM and 0.0065 µM, respectively. In addition, the “Increase in DR53 reactivity” value on DRw53 is recorded as 20 fold.

Consider `CC(C)C[C@H](NC(=O)[C@@H](NC(=O)[C@H](C)NC(=O)[C@H](CCC(N)=O)NC(=O)[C@H](C)NC(=O)[C@H](C)NC(=O)[C@H](CC1CCCCC1)NC(=O)[C@H](C)NC(=O)[C@@H](C)N)[C@@H](C)O)C(=O)N[C@@H](CCCCN)C(=O)N[C@@H](C)C(=O)N[C@@H](C)C(=O)N[C@H](C)C(N)=O` [Peptide 906.20] (H-[dA]A[Cha]AAQATLKAA[dA]-NH2; N-terminus and C-terminus assumed), for which the IC50 in the test with DR7 (Table VIII A) amounted to 2.5 µM; in the test on DQ3.1 (read-out: PADRE Class II Binding Affinities, Table VIII A), 0.652 µM; in the test on DR5 (read-out: PADRE Class II Binding Affinities DR5, Table VIII A), 0.0041 µM. The “Loss of DR7 binding reactivity” value in the test on DR7 (relative to parent 760.57) is recorded as 30 fold. Besides, at DR3, the “PADRE Class II Binding Affinities DR3” value is “loss of DR3 binding”.

Consider `CC(C)C[C@H](NC(=O)[C@@H](NC(=O)[C@H](Cc1c[nH]c2ccccc12)NC(=O)[C@H](C)NC(=O)[C@H](C)NC(=O)[C@@H](NC(=O)[C@H](CC1CCCCC1)NC(=O)[C@H](CCCCN)NC(=O)[C@@H](C)N)C(C)C)[C@@H](C)O)C(=O)N[C@@H](CCCCN)C(=O)N[C@@H](C)C(=O)N[C@@H](C)C(=O)N[C@H](C)C(N)=O` [Peptide 965.10], for which, in the test with human PBMC T cell lines, the “Donors with significant (>10,000 cpm) T cell response / donors tested, second stimulation” value is 9/12 and all 5 individuals; the “Donors with significant (>10,000 cpm) T cell response / donors tested, third stimulation” value was 11 of 12 and all 5 individuals. The molecule also came in with an Effective immunizing dose with C57BL/6J (H-2^b+) mice of 0.05 μg/mouse. For the same molecule, the IC50 in the test with IE^k (Table III) worked out at 0.326 µM.

With `CC[C@H](C)[C@H](NC(=O)CNC(=O)[C@@H](NC(=O)[C@H](Cc1ccccc1)NC(=O)[C@H](CCCCN)NC(=O)[C@H](CO)NC(=O)[C@H](CC(N)=O)NC(=O)[C@H](C)NC(=O)[C@H](CCCCN)NC(=O)[C@@H](NC(=O)[C@H](Cc1ccc(O)cc1)NC(=O)[C@@H](N)CCC(N)=O)[C@@H](C)CC)[C@@H](C)CC)C(=O)N[C@H](C(=O)N[C@@H](CCC(=O)O)C(=O)O)[C@@H](C)O` [Tet Tox 830-843, reference compound], the “Capacity to bind purified IA^b, IC50” value at IA^b is recorded as “did not bind IA^b appreciably”. In the test on human PBMC T cell lines, the “Donors with significant (>10,000 cpm) T cell response / donors tested, second stimulation” value is recorded as 3/12 and the “Donors with significant (>10,000 cpm) T cell response / donors tested, third stimulation” value is recorded as 7/12. Moreover, in the test with C57BL/6J (H-2^b+) mice (sc), the “T cell proliferative response of primed lymph node cells” value is reported as “unable to generate a specific T cell proliferative response”.

Take aKFVAAWTLKAAa [Peptide 1024.03]: the IC50 is 0.023 µM in the test on DQ3.1 (read-out: Capacity to bind purified DQ3.1, IC50); 0.018 µM in the test with DR5 (read-out: Binding capacity DR5, IC50); 3.5 µM in the test with IE^k. In the test with C57BL/6J (H-2^b+) mice, the Effective immunizing dose is on record as 0.05 μg/mouse.

Values taken from patent US6413935B1, “Induction of immune response against desired determinants” (priority 1993, dated 2002).
